Species on record: Rattus norvegicus
Experiment: DrugMatrix - Regimen: Daily Repeat
Assay type: toxicity, organism-based, Sprague-Dawley
Set-up: regimen Daily Repeat, gender Male, age 6-8 weeks
Settings: in vivo, po, 2500 mg/kg, route oral GAVAGE, dose level High, vehicle 100 % WATER; for ABSOLUTE BASOPHIL / ABSOLUTE EOSINOPHIL / ABSOLUTE LYMPHOCYTE / ABSOLUTE MONOCYTE / ABSOLUTE SEGMENTED NEUTROPHIL / BASOPHIL / EOSINOPHIL / ERYTHROCYTE COUNT / HEMATOCRIT / HEMOGLOBIN / LEUKOCYTE COUNT / LYMPHOCYTE / MEAN CORPUSCULAR HEMOGLOBIN / MEAN CORPUSCULAR HEMOGLOBIN CONCENTRATION / MEAN CORPUSCULAR VOLUME / MONOCYTE / NEUTROPHIL / NUCLEATED RED BLOOD CELLS / PLATELET COUNT: tissue Blood; for ALANINE AMINOTRANSFERASE / ALBUMIN / ALKALINE PHOSPHATASE / ASPARTATE AMINOTRANSFERASE / BLOOD UREA NITROGEN / CARBON DIOXIDE / CHLORIDE / CHOLESTEROL / CREATINE PHOSPHOKINASE / CREATININE / GLUCOSE / LACTATE DEHYDROGENASE / LIPASE / PHOSPHORUS / POTASSIUM / SODIUM / TOTAL BILIRUBIN / TOTAL PROTEIN / URIC ACID: tissue Plasma

Structure (SMILES): CCN(CC)CCOC(=O)c1ccc(N)cc1 [PROCAINE]
- ABSOLUTE BASOPHIL (72 h, time 3 day): 0 CELLS/uL
- ABSOLUTE EOSINOPHIL (72 h, time 3 day): 0 CELLS/uL
- ABSOLUTE LYMPHOCYTE (72 h, time 3 day): 12849.67 CELLS/uL
- ABSOLUTE MONOCYTE (72 h, time 3 day): 127.33 CELLS/uL
- ABSOLUTE SEGMENTED NEUTROPHIL (72 h, time 3 day): 789.67 CELLS/uL
- BASOPHIL (72 h, time 3 day): 0%
- EOSINOPHIL (72 h, time 3 day): 0%
- ERYTHROCYTE COUNT (72 h, time 3 day): 5.53 x10E6/uL
- HEMATOCRIT (72 h, time 3 day): 34.97%
- HEMOGLOBIN (72 h, time 3 day): 13.83 G/DL
- LEUKOCYTE COUNT (72 h, time 3 day): 13.77 x10E3/uL
- LYMPHOCYTE (72 h, time 3 day): 93.33%
- MEAN CORPUSCULAR HEMOGLOBIN (72 h, time 3 day): 24.97 pg
- MEAN CORPUSCULAR HEMOGLOBIN CONCENTRATION (72 h, time 3 day): 39.63 G/DL
- MEAN CORPUSCULAR VOLUME (72 h, time 3 day): 63.1 fL
- MONOCYTE (72 h, time 3 day): 1%
- NEUTROPHIL (72 h, time 3 day): 5.67%
- NUCLEATED RED BLOOD CELLS (72 h, time 3 day): 0 /100WBC
- PLATELET COUNT (72 h, time 3 day): 1276.67 x10E3/uL
- ALANINE AMINOTRANSFERASE (72 h, time 3 day): 52.33 u/L
- ALBUMIN (72 h, time 3 day): 4.3 G/DL
- ALKALINE PHOSPHATASE (72 h, time 3 day): 353.67 u/L
- ASPARTATE AMINOTRANSFERASE (72 h, time 3 day): 121.67 u/L
- BLOOD UREA NITROGEN (72 h, time 3 day): 13.67 mg/dL
- CARBON DIOXIDE (72 h, time 3 day): 25.33 mmol/L
- CHLORIDE (72 h, time 3 day): 103.33 MEQ/L
- CHOLESTEROL (72 h, time 3 day): 42.33 mg/dL
- CREATINE PHOSPHOKINASE (72 h, time 3 day): 550.67 u/L
- CREATININE (72 h, time 3 day): 0.21 mg/dL
- GLUCOSE (72 h, time 3 day): 173 mg/dL
- LACTATE DEHYDROGENASE (72 h, time 3 day): 675.33 u/L
- LIPASE (72 h, time 3 day): 9 u/L
- PHOSPHORUS (72 h, time 3 day): 14.53 mg/dL
- POTASSIUM (72 h, time 3 day): 7.06 MEQ/L
- SODIUM (72 h, time 3 day): 146.03 MEQ/L
- TOTAL BILIRUBIN (72 h, time 3 day): 0.17 mg/dL
- TOTAL PROTEIN (72 h, time 3 day): 5.9 G/DL
- URIC ACID (72 h, time 3 day): 2.57 mg/dL
- ABSOLUTE BASOPHIL (120 h, time 5 day): 0 CELLS/uL
- ABSOLUTE EOSINOPHIL (120 h, time 5 day): 0 CELLS/uL
- ABSOLUTE LYMPHOCYTE (120 h, time 5 day): 14457.33 CELLS/uL
- ABSOLUTE MONOCYTE (120 h, time 5 day): 61 CELLS/uL
- ABSOLUTE SEGMENTED NEUTROPHIL (120 h, time 5 day): 915 CELLS/uL
- BASOPHIL (120 h, time 5 day): 0%
- EOSINOPHIL (120 h, time 5 day): 0%
- ERYTHROCYTE COUNT (120 h, time 5 day): 6.15 x10E6/uL
- HEMATOCRIT (120 h, time 5 day): 37.43%
- HEMOGLOBIN (120 h, time 5 day): 14.7 G/DL
- LEUKOCYTE COUNT (120 h, time 5 day): 15.43 x10E3/uL
- LYMPHOCYTE (120 h, time 5 day): 93.33%
- MEAN CORPUSCULAR HEMOGLOBIN (120 h, time 5 day): 23.93 pg
- MEAN CORPUSCULAR HEMOGLOBIN CONCENTRATION (120 h, time 5 day): 39.3 G/DL
- MEAN CORPUSCULAR VOLUME (120 h, time 5 day): 60.87 fL
- MONOCYTE (120 h, time 5 day): 0.33%
- NEUTROPHIL (120 h, time 5 day): 6.33%
- NUCLEATED RED BLOOD CELLS (120 h, time 5 day): 0 /100WBC
- PLATELET COUNT (120 h, time 5 day): 1379 x10E3/uL
- ALANINE AMINOTRANSFERASE (120 h, time 5 day): 40 u/L
- ALBUMIN (120 h, time 5 day): 4.73 G/DL
- ALKALINE PHOSPHATASE (120 h, time 5 day): 323.33 u/L
- ASPARTATE AMINOTRANSFERASE (120 h, time 5 day): 94 u/L
- BLOOD UREA NITROGEN (120 h, time 5 day): 17 mg/dL
- CARBON DIOXIDE (120 h, time 5 day): 26 mmol/L
- CHLORIDE (120 h, time 5 day): 101.67 MEQ/L
- CHOLESTEROL (120 h, time 5 day): 33.67 mg/dL
- CREATINE PHOSPHOKINASE (120 h, time 5 day): 281 u/L
- CREATININE (120 h, time 5 day): 0.24 mg/dL
- GLUCOSE (120 h, time 5 day): 166.67 mg/dL
- LACTATE DEHYDROGENASE (120 h, time 5 day): 198.33 u/L
- LIPASE (120 h, time 5 day): 9.67 u/L
- PHOSPHORUS (120 h, time 5 day): 12.67 mg/dL
- POTASSIUM (120 h, time 5 day): 7.55 MEQ/L
- SODIUM (120 h, time 5 day): 143.33 MEQ/L
- TOTAL BILIRUBIN (120 h, time 5 day): 0.2 mg/dL
- TOTAL PROTEIN (120 h, time 5 day): 6.67 G/DL
- URIC ACID (120 h, time 5 day): 2 mg/dL

Reference: ChEMBL document CHEMBL3885881, “DrugMatrix”
